Measurements published in patent US11028079B2 (ConverGene LLC, priority 2015, dated 2021).
pKd: −log10 of the molar value.

Molecular target: T1, BRD4 bromodomains (Homo sapiens, UniProt O60885)
T1 construct: fused on or other part: T7 phage capsid protein (phage-display fusion; the phage DNA is read out by qPCR)
Assay: BROMOscan bromodomain competition binding assay (DiscoveRx)
Details: Kd from 11 compound concentrations ranging from 0 to 10 μM, read-out: BROMOscan Relative Activity
Description: Bromodomain assays were conducted to measure interactions between certain compounds and bromodomains.
The assays were conducted according to BROMOscan protocol from Discover Rx. Briefly, BRD4 bromodomains expressed as a fusion capsid protein of T7 phage were bound to acetylated peptide ligand on a solid phase and competition bindings were performed. T7 phage strains displaying bromodomains were grown in parallel in 24-well blocks in an E. coli host derived from the BL21 strain. E. coli were grown to log-phase and infected with T7 phage from a frozen stock (multiplicity of infection=0.4) and incubated with shaking at 32° C. until lysis (90-150 minutes). The lysates were centrifuged (5,000×g) and filtered (0.2 μm) to remove cell debris. […] The liganded beads were blocked with excess biotin and washed with blocking buffer (SeaBlock (Pierce), 1% BSA, 0.05% Tween 20, 1 mM DTT) to remove unbound ligand and to reduce non-specific phage binding. […] Test compounds were prepared as 1000× stocks in 100% DMSO and subsequently diluted 1:10 in monoethylene glycol (MEG) to create stocks at 100× the screening concentration (resulting stock solution is 10% DMSO/90% MEG). The compounds were then diluted directly into the assays such that the final concentration of DMSO and MEG were 0.1% and 0.9%, respectively. All reactions were performed in polystyrene 96-well plates in a final volume of 0.135 ml. […] The bromodomain concentration in the eluates was measured by qPCR. Data was collected at 11 compound concentrations ranging from 0 to 10 μM. Kd values were then derived from a standard dose-response curve generated with Hill equation (Hill Slope was set to ˜1) and a non-linear least square fit with the Levenberg-Marquardt algorithm. Response=Background+Signal−Background/1+(Kd Hill Slope/Dose Hill Slope)

`CN(C)CCN1CCN(c2nc(NCc3cccc(Cl)c3)c3cc(-c4cn[nH]c4)ccc3n2)CC1` [Example 64, N-(3-chlorobenzyl)-2-(4-(2-(dimethylamino)ethyl)piperazin-1-yl)-6-(1H-pyrazol-4-yl)quinazolin-4-amine] was tested, and the pKd was under 5.30.

With `Cc1n[nH]c(C)c1-c1ccc2nc(N3CCN(CCN(C)C)CC3)nc(NCc3cccc(Cl)c3)c2c1` [Example 65, N-(3-chlorobenzyl)-6-(3,5-dimethyl-1H-pyrazol-4-yl)-2-(4-(2-(dimethylamino)ethyl)piperazin-1-yl)quinazolin-4-amine] the pKd was 5.30 to 6.30.

With `CN(C)CCN1CCN(c2nc(NCc3cccc(Cl)c3)c3cc(-c4ccc(=O)n(C)c4)ccc3n2)CC1` [Example 66, 5-(4-((3-chlorobenzyl)amino)-2-(4-(2-(dimethylamino)ethyl)piperazin-1-yl)quinazolin-6-yl)-1-methylpyridin-2(1H)-one] the pKd was over 6.30.

`CN(C)CCN1CCN(c2nc(NCc3cccc(Cl)c3)c3cc(-c4ccc(O)nc4)ccc3n2)CC1` [Example 67, 5-(4-((3-chlorobenzyl)amino)-2-(4-(2-(dimethylamino)ethyl)piperazin-1-yl)quinazolin-6-yl)pyridin-2-ol] was tested, and the pKd was 5.30 to 6.30.

`Cc1noc(C)c1-c1ccc2nc(N3CCN(CCN(C)C)CC3)nc(O)c2c1` [Example 68, 2-(4-(2-(dimethylamino)ethyl)piperazin-1-yl)-6-(3,5-dimethylisoxazol-4-yl)quinazolin-4-ol] was tested, and the pKd was 5.30 to 6.30.

For `Cc1noc(C)c1-c1ccc2nc(-c3c(C)noc3C)nc(NCc3cccs3)c2c1` [Example 69, 2,6-bis(3,5-dimethylisoxazol-4-yl)-N-(thiophen-2-ylmethyl)quinazolin-4-amine], the pKd was 5.30 to 6.30.

`Cc1noc(C)c1-c1ccc2nc(-c3c(C)noc3C)nc(NCc3cccc(Cl)c3)c2c1` [Example 70, N-(3-chlorobenzyl)-2,6-bis(3,5-dimethylisoxazol-4-yl)quinazolin-4-amine] was tested, and the pKd was 5.30 to 6.30.

`Cc1noc(C)c1-c1ccc2nc(N3CCN(CCN(C)C)CC3)nc(NCc3cccs3)c2c1` [Example 71, 2-(4-(2-(dimethylamino)ethyl)piperazin-1-yl)-6-(3,5-dimethylisoxazol-4-yl)-N-(thiophen-2-ylmethyl)quinazolin-4-amine] showed a pKd of over 6.30.

For `COc1ccccc1CNc1nc(N2CCN(CCN(C)C)CC2)nc2ccc(-c3c(C)noc3C)cc12` [Example 72, 2-(4-(2-(dimethylamino)ethyl)piperazin-1-yl)-6-(3,5-dimethylisoxazol-4-yl)-N-(2-methoxybenzyl)quinazolin-4-amine], the pKd was over 6.30.

With `COc1cccc(CNc2nc(N3CCN(CCN(C)C)CC3)nc3ccc(-c4c(C)noc4C)cc23)c1` [Example 73, 2-(4-(2-(dimethylamino)ethyl)piperazin-1-yl)-6-(3,5-dimethylisoxazol-4-yl)-N-(3-methoxybenzyl)quinazolin-4-amine] the pKd was over 6.30.

Work on `Cc1noc(C)c1-c1ccc2nc(N3CCN(CCN(C)C)CC3)nc(NCc3ccccc3Cl)c2c1` [Example 74, N-(2-chlorobenzyl)-2-(4-(2-(dimethylamino)ethyl)piperazin-1-yl)-6-(3,5-dimethylisoxazol-4-yl)quinazolin-4-amine] yielded a pKd of over 6.30.

For `Cc1noc(C)c1-c1ccc2nc(N3CCN(CCN(C)C)CC3)nc(NCc3cccc(Br)c3)c2c1` [Example 75, N-(3-bromobenzyl)-2-(4-(2-(dimethylamino)ethyl)piperazin-1-yl)-6-(3,5-dimethylisoxazol-4-yl)quinazolin-4-amine], the pKd was over 6.30.

In the case of `Cc1noc(C)c1-c1ccc2nc(N3CCN(CCN(C)C)CC3)nc(NCc3ccccc3F)c2c1` [Example 76, 2-(4-(2-(dimethylamino)ethyl)piperazin-1-yl)-6-(3,5-dimethylisoxazol-4-yl)-N-(2-fluorobenzyl)quinazolin-4-amine], the pKd was over 6.30.

Work on `Cc1noc(C)c1-c1ccc2nc(N3CCN(CCN(C)C)CC3)nc(NCc3cccc(F)c3)c2c1` [Example 77, 2-(4-(2-(dimethylamino)ethyl)piperazin-1-yl)-6-(3,5-dimethylisoxazol-4-yl)-N-(3-fluorobenzyl)quinazolin-4-amine] yielded a pKd of over 6.30.

With `Cc1oncc1-c1ccc2nc(N3CCN(CCN(C)C)CC3)nc(NCc3cccc(Cl)c3)c2c1` [Example 78, N-(3-chlorobenzyl)-2-(4-(2-(dimethylamino)ethyl)piperazin-1-yl)-6-(5-methylisoxazol-4-yl)quinazolin-4-amine] the pKd was 5.30 to 6.30.

`Cc1noc(C)c1-c1ccc2nc(N3CCN(CCN(C)C)CC3)nc(NCc3ccco3)c2c1` [Example 79, 2-(4-(2-(dimethylamino)ethyl)piperazin-1-yl)-6-(3,5-dimethylisoxazol-4-yl)-N-(furan-2-ylmethyl)quinazolin-4-amine] was tested, and the pKd was 5.30 to 6.30.

With `Cc1noc(C)c1-c1ccc2nc(N3CCN(CCN(C)C)CC3)nc(NCc3cccnc3)c2c1` [Example 80, 2-(4-(2-(dimethylamino)ethyl)piperazin-1-yl)-6-(3,5-dimethylisoxazol-4-yl)-N-(pyridin-3-ylmethyl)quinazolin-4-amine] the pKd was over 6.30.

Work on `Cc1noc(C)c1-c1ccc2nc(N3CCN(CCN(C)C)CC3)nc(NCc3cncc(Cl)c3)c2c1` [Example 81, N-((5-chloropyridin-3-yl)methyl)-2-(4-(2-(dimethylamino)ethyl)piperazin-1-yl)-6-(3,5-dimethylisoxazol-4-yl)quinazolin-4-amine] yielded a pKd of over 6.30.

`Cc1noc(C)c1-c1ccc2nc(N3CCN(CCN(C)C)CC3)nc(NCc3cc(Cl)ccn3)c2c1` [Example 82, N-((4-chloropyridin-2-yl)methyl)-2-(4-(2-(dimethylamino)ethyl)piperazin-1-yl)-6-(3,5-dimethylisoxazol-4-yl)quinazolin-4-amine] was tested, and the pKd was over 6.30.

`Cc1noc(C)c1-c1ccc2nc(N3CCN(CCN(C)C)CC3)nc(NCc3cncc(F)c3)c2c1` [Example 83, 2-(4-(2-(dimethylamino)ethyl)piperazin-1-yl)-6-(3,5-dimethylisoxazol-4-yl)-N-((5-fluoropyridin-3-yl)methyl)quinazolin-4-amine] was tested, and the pKd was over 6.30.

Molecule `Cc1ccncc1CNc1nc(N2CCN(CCN(C)C)CC2)nc2ccc(-c3c(C)noc3C)cc12` [Example 84, 2-(4-(2-(dimethylamino)ethyl)piperazin-1-yl)-6-(3,5-dimethylisoxazol-4-yl)-N-((4-methylpyridin-3-yl)methyl)quinazolin-4-amine] has a pKd of over 6.30.

Work on `Cc1noc(C)c1-c1ccc2nc(N3CCN(CCN(C)C)CC3)nc(N(C)Cc3cccc(Cl)c3)c2c1` [Example 85, N-(3-chlorobenzyl)-2-(4-(2-(dimethylamino)ethyl)piperazin-1-yl)-6-(3,5-dimethylisoxazol-4-yl)-N-methylquinazolin-4-amine] yielded a pKd of over 6.30.

`CN(C)CCN1CCN(c2nc(NCc3cccc(Cl)c3)c3cc(-c4cnc(O)c(F)c4)ccc3n2)CC1` [Example 86, 5-(4-((3-chlorobenzyl)amino)-2-(4-(2-(dimethylamino)ethyl)piperazin-1-yl)quinazolin-6-yl)-3-fluoropyridin-2-ol] showed a pKd of 5.30 to 6.30.

`Cc1csc(CNc2nc(N3CCN(CCN(C)C)CC3)nc3ccc(-c4c(C)noc4C)cc23)c1` [Example 87, 2-(4-(2-(dimethylamino)ethyl)piperazin-1-yl)-6-(3,5-dimethylisoxazol-4-yl)-N-((4-methylthiophen-2-yl)methyl)quinazolin-4-amine] showed a pKd of over 6.30.
